Results: US20060063782A1, “3-Hetero arylmethoxy ! pyridines and their analogues as p38 map kinase inhibitors” (priority 2002, published 2006)

Molecular target: p38 MAP kinase (Homo sapiens, UniProt Q16539)
Test: p38 MAP Kinase Assay (33P incorporation into myelin basic protein, filter plate)
Type: biochemical
Settings: MKK6-activated p38, MBP substrate, 50 minutes
Protocol: The activated p38 is then diluted 1:6 with assay buffer, and 20 μl mixed with 25 μl of MBP mix (300 μl 10×strength assay buffer, 300 μl of 10 mM DTT & 10 mM sodium orthovanadate, 1.7 ml H2O, 50 μCi γ^33P-ATP, 200 μl of myelin basic protein (MBP) (5 mg/ml)) and added to 96 well plates along with 5 μl of various dilutions of the test compound in DMSO (up to 10%). The reaction is allowed to proceed for 50 minutes before being stopped with an excess of ortho-phosphoric acid (30 μl at 2%).
γ^33P-ATP which remains unincorporated into the myelin basic protein is separated from phosphorylated MBP on a Millipore MAPH filter plate. The wells of the MAPH plate are wetted with 0.5% orthophosphoric acid, and then the results of the reaction are filtered with a Millipore vacuum filtration unit through the wells. Following filtration, the residue is washed twice with 200 μl of 0.5% orthophosphoric acid. Once the filters have dried, 25 μl of Microscint 20 scintillant is added, and then counted on a Packard Topcount for 30 seconds.

p38 MAP kinase, sequence (Q16539 whole entry): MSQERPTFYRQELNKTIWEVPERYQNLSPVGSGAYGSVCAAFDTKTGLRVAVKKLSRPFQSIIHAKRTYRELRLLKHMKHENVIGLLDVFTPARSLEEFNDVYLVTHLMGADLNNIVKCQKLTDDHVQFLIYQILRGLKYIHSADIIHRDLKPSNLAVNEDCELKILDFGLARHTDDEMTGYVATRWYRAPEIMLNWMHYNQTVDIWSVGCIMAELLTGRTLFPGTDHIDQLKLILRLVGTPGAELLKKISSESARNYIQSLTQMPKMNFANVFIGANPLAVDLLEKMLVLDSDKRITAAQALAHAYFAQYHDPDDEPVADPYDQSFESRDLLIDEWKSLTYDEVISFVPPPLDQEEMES

SMILES	IC50 (Table 1)	IC50 (Table 2)
Nc1ncccc1OCc1ccc(Cl)c(F)c1 [Compound 16, 2-amino-3-(4-chloro-3-fluorobenzyloxy)pyridine]	< 200 µM	
Cc1cc(C)c2nc(NC(=O)Nc3ccc(F)c(COc4cnccn4)c3)sc2c1 [Compound 116, 1-(4,6-Dimethyl-benzothiazol-2-yl)-3-[4-fluoro-3-(pyrazin-2-yloxymethyl)-phenyl]-urea]		< 1000 µM
Cc1noc(-c2ccccc2)c1C(=O)Nc1ccc(F)c(COc2cnccn2)c1 [Compound 122, 3-Methyl-5-phenyl-isoxazole-4-carboxylic acid [4-fluoro-3-(pyrazin-2-yloxymethyl)-phenyl]-amide]		< 200 µM
Nc1ncccc1OCc1cc2c(cc1Cl)OCO2 [Compound 18, 2-amino-3-(2-chloro-4,5-(methylenedioxy)benzyloxy)pyridine]	< 1000 µM	
Nc1cnc(OCc2ccccc2)cn1 [Compound 86]		< 1000 µM
Nc1ncccc1OCc1csc2ccccc12 [Compound 40]	< 1000 µM	
CNc1cnc(OCc2c(Cl)cccc2Cl)cn1 [Compound 148, [5-(2,6-Dichloro-benzyloxy)-pyrazin-2-yl]-methyl-amine]		< 200 µM
O=C(Cn1ccnc1)Nc1cnc(OCc2c(Cl)cccc2Cl)cn1 [Compound 174]		< 20 µM
C[S+]([O-])c1nnc(NC(=O)Nc2ccc(F)c(COc3cnccn3)c2)s1 (centres unmarked) [Compound 159, 1-[4-Fluoro-3-(pyrazin-2-yloxymethyl)-phenyl]-3-(5-methanesulfinyl-[1,3,4]thiadiazol-2-yl)-urea]		< 1000 µM
O=C(CC1CCOCC1)Nc1cnc(OCc2c(Cl)cccc2Cl)cn1 [Compound 173]		< 200 µM
CC(C)(C)OC(=O)Nc1ccc(Cl)c(COc2cnccn2)c1 [Compound 89]		< 1000 µM
CC(C)(C)c1cc(NC(=O)Oc2cccc(COc3cnccn3)c2)n(-c2ccccc2)n1 [Compound 142]		< 200 µM
Clc1cccc(Cl)c1COc1ccc(NCc2ccccc2)nc1 [Compound 51]	< 200 µM	
CC(C)(C)c1cc(C(=O)Nc2ccc(F)c(COc3cnccn3)c2)n(Cc2ccccc2)n1 [Compound 135, 2-Benzyl-5-tert-butyl-2H-pyrazole-3-carboxylic acid [4-fluoro-3-(pyrazin-2-yloxymethyl)-phenyl]-amide]		< 20 µM
Nc1ccc(Cl)c(COc2cnccn2)c1 [Compound 91]		< 1000 µM
Clc1cccc(Cl)c1COc1cnccn1 [Compound 87]		< 200 µM
CC(Nc1cnc(OCc2c(Cl)cccc2Cl)cn1)c1ccccc1 (centres unmarked) [Compound 154, [5-(2,6-Dichloro-benzyloxy)-pyrazin-2-yl]-(1-phenyl-ethyl)-amine]		< 20 µM
CC(C)(Cc1ccncc1)NC(=O)c1cnc(OCc2c(Cl)cccc2Cl)cn1 [Compound 139, 5-(2,6-Dichloro-benzyloxy)-pyrazine-2-carboxylic acid (1,1-dimethyl-2-pyridin-4-yl-ethyl)-amide]		< 20 µM
C=CS(=O)(=O)Nc1cnc(OCc2c(Cl)cccc2Cl)cn1 [Compound 145]		< 200 µM
O=C(Nc1ccc(F)c(COc2cnccn2)c1)Nc1nnc(CC2CC2)s1 [Compound 96, 1-(5-Cyclopropylmethyl-[1,3,4]thiadiazol-2-yl)-3-[4-fluoro-3-(pyrazin-2-yloxymethyl)-phenyl]-urea]		< 2 µM
O=C(CN1CCCCC1)Nc1cnc(OCc2c(Cl)cccc2Cl)cn1 [Compound 172]		< 200 µM
O=C(Nc1ccc(F)c(COc2cnccn2)c1)c1cccc(S(=O)(=O)N2CCOCC2)c1 [Compound 98, N-[4-Fluoro-3-(pyrazin-2-yloxymethyl)-phenyl]-3-(morpholine-4-sulfonyl)-benzamide]		< 2 µM

SMILES	IC50 (Table 1)	IC50 (Table 2)
CC(C)(C)c1cc(NC(=O)Nc2ccc(F)c(COc3cnccn3)c2)n(-c2ccncc2)n1 [Compound 160, 1-(5-tert-Butyl-2-pyridin-4-yl-2H-pyrazol-3-yl)-3-[4-fluoro-3-(pyrazin-2-yloxymethyl)-phenyl]-urea]		< 2 µM
O=C(Nc1ccc(F)c(COc2cnccn2)c1)Nc1nnc(-c2ccccc2)s1 [Compound 115, 1-[4-Fluoro-3-(pyrazin-2-yloxymethyl)-phenyl]-3-(5-phenyl-[1,3,4]thiadiazol-2-yl)-urea]		< 200 µM
Nc1ncccc1OCc1ccc(Cl)cc1Cl [Compound 15, 2-amino-3-(2,4-dichlorobenzyloxy)pyridine]	< 1000 µM	
CC(C)(C)c1ccccc1NC(=O)Nc1ccc(F)c(COc2cccnc2)c1 [Compound 78, 1-(2-tert-Butyl-phenyl)-3-[4-fluoro-3-(pyridin-3-yloxymethyl)-phenyl]-urea]	< 20 µM	
Nc1ccncc1OCc1cccc2ccccc12 [Compound 46]	< 1000 µM	
c1cc(COc2cnccn2)cc(Nc2nc3ccccc3o2)c1 [Compound 109]		< 200 µM
O=C(Nc1ccc(Cl)c(COc2cccnc2)c1)c1cccc(C(F)(F)F)c1 [Compound 69, N-[4-Chloro-3-(pyridin-3-yloxymethyl)-phenyl]-3-trifluoromethyl-benzamide]	< 20 µM	
OCCNc1ccc(OCc2ccccc2)cn1 [Compound 45]	< 200 µM	
O=C1c2ccccc2C(O)N1c1ccc(Cl)c(COc2cccnc2)c1 (centres unmarked) [Compound 73]	< 200 µM	
Nc1nccnc1OCc1cccc2ccccc12 [Compound 82]		< 1000 µM
c1cncc(OCc2cccc3ccccc23)c1 [Compound 11, 3-(1-Naphthylmethyloxy)pyridine]	< 1000 µM	
O=C(Nc1cccc(COc2cccnc2)c1)c1ccccc1 [Compound 66, N-[3-(Pyridin-3-yloxymethyl)-phenyl]-benzamide]	< 200 µM	
O=C(Nc1ccc(F)c(COc2cnccn2)c1)Nc1cc(-c2ccccc2)nn1-c1ccccc1 [Compound 134, 1-(2,5-Diphenyl-2H-pyrazol-3-yl)-3-[4-fluoro-3-(pyrazin-2-yloxymethyl)-phenyl]-urea]		< 2 µM
O=C(NCCO)c1cnc(OCc2c(Cl)cccc2Cl)cn1 [Compound 112, 5-(2,6-Dichloro-benzyloxy)-pyrazine-2-carboxylic acid (2-hydroxy-ethyl)-amide]		< 1000 µM
O=C1c2ccccc2C(=O)N1c1ccc(Cl)c(COc2cccnc2)c1 [Compound 68, 2-[4-Chloro-3-(pyridin-3-yloxymethyl)-phenyl]-isoindole-1,3-dione]	< 1000 µM	
O=C(Nc1ccc(Cl)c(COc2cnccn2)c1)c1ccnc(N2CCOCC2)c1 [Compound 93, N-[4-Chloro-3-(pyrazin-2-yloxymethyl)-phenyl]-2-morpholin-4-yl-isonicotinamide]		< 2 µM
O=C(CN1CCOCC1)Nc1cnc(OCc2c(Cl)cccc2Cl)cn1 [Compound 171]		< 200 µM
O=C(Nc1ccc(F)c(COc2cccnc2)c1)c1cccc(F)c1 [Compound 60, 3-Fluoro-N-[4-fluoro-3-(pyridin-3-yloxymethyl)-phenyl]-benzamide]	< 200 µM	
O=C1c2ccccc2CN1c1ccc(F)c(COc2cccnc2)c1 [Compound 80]	< 1000 µM	
Nc1ncccc1OCc1cccc(-c2ccccc2)c1 [Compound 20]	< 200 µM	
CC(C)(CO)NC(=O)c1cnc(OCc2c(Cl)cccc2Cl)cn1 [Compound 113, 5-(2,6-Dichloro-benzyloxy)-pyrazine-2-carboxylic acid (2-hydroxy-1,1-dimethyl-ethyl)-amide]		< 20 µM
CCN(CC)C(=O)Nc1cnc(OCc2c(Cl)cccc2Cl)cn1 [Compound 114]		< 200 µM
